Results reported in ChEMBL document CHEMBL1201862, “PubChem BioAssay data set” (2004).
Values joined by “and” are separate entries in the source; they are usually repeats but may differ in a detail not shown here. Identical values can stand only once. Active and inactive are the calls of the source.

What was measured:
[1] = Luminescence Cell-Based Dose Response HTS to Identify Inhibitors of 5'UTR Stem-Loop Driven Prion Protein mRNA Translation in H4 Neuroglioblastoma Cells. [Related pubchem assays: 1827 (Project Summary), 1813 (Primary HTS)]; assay type: functional
[2] = HEK-293T viability loss after treatment – luminescence, T-cell screen hits, cytotoxicity control for TCR NF-kB inhibitor project, dose response (AID 489026); assay type: functional, cell-based;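 also: cells exposed to compound about 14 hours before the viability readout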
[3] = luciferase reporter signal suppression in cells – H4 neuroglioma cells, luminescence, dose response (AID 1990); assay type: functional, cell-based
[4] = cells; assay type: functional, cell-based
[5] = test system: BJ; experiment: BJ-TERT-LT-ST fibroblast viability loss – cell-based, RAS-independent, luminescence, dose response (AID 1935); assay type: functional; conditions: Homo sapiens;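 also: BJ fibroblasts immortalized with TERT plus LT and ST oncogenes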
[6] = luciferase reporter signal reduction – luminescence, H4-C neuroglioblastoma cells, dose response (AID 2458); assay type: functional, cell-based;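 also: H4 neuroglioblastoma cells stably carrying a luciferase reporter gene fusion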
[7] = DRD fibroblast viability loss – cell-based, non-viral oncogenic, luminescence, dose response (AID 1934); assay type: functional; conditions: Homo sapiens
[8] = alpha-synuclein stem-loop translation blockers – luminescence, H4 neuroglioblastoma cells, dose confirmation, confirmation (AID 2454); assay type: functional, cell-based;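 also: H4 neuroglioblastoma cells carrying an alpha-synuclein 5'UTR luciferase reporter; potency for inhibition of the luciferase signal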
[9] = viability of uninfected HEp-2 cells – cell-based, HTS, cytotoxicity control for RSV inhibitor project, dose response (AID 2410); assay type: functional; conditions: human respiratory syncytial virus
[10] = test system: BJ; experiment: cells; assay type: functional, cell-based; conditions: Homo sapiens
[11] = alpha-synuclein stem-loop luciferase translation blockers – H4 neuroglioma cells, luminescence, confirmation (AID 1988); assay type: functional, cell-based
[12] = test system: BJ; experiment: BJ-TERT fibroblast viability loss – cell-based, RAS-independent, luminescence, dose response (AID 1933); assay type: functional; conditions: Homo sapiens
[13] = test system: HT-1080; experiment: HT1080 cell viability loss – fluorescence readout (AID 620); assay type: functional, cell-based; conditions: Homo sapiens
[14] = molecular target: Luciferin 4-monooxygenase (Photinus pyralis, UniProt P08659); experiment: Counter Screen for Luciferase-based Assay Positives. [Related pubchem assays: 620, 618, 411 ]
[15] = molecular target: T1, Neuropeptide Y receptor type 2 (Homo sapiens, UniProt P49146); experiment: Fluorescence-based cell-based high-throughput dose response assay for agonists of NPY-Y2. [Related pubchem assays: 1703 (Screening assay (CNGC inhibitors).), 1359 (Screening assay (NPY-Y2 potentiators or agonists).), 1304 (Screening assay (NPY-Y1 potentiators or agonists).), 1710 (Screening assay (NPY-Y2 agonists).), 1791 (Summary AID.)]; assay type: functional
T1 sequence (P49146 whole entry): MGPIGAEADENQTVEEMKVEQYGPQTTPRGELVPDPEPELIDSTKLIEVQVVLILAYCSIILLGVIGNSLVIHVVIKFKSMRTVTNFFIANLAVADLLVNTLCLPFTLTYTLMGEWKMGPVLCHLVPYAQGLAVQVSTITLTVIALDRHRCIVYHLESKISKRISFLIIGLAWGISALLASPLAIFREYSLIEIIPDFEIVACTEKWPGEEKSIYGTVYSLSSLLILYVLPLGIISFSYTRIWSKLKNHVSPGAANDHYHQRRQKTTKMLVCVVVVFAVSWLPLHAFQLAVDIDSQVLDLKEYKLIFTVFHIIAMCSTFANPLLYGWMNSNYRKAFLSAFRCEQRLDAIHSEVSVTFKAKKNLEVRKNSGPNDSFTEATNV

[16] = molecular target: E3 ubiquitin-protein ligase Mdm2 (Homo sapiens, UniProt Q00987); experiment: MDM2-luc reporter signal enhancers, multi-concentration potency testing, MDM2 ubiquitin-protein ligase inhibitor program, whole-cell format, luminescence detection, 384-well microplate (AID 1394); assay type: functional;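 also: MDM2 E3 inhibitors raise luminescence so EC50 is for signal enhancement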
[17] = test system: HEK293; experiment: Fluorescence-based counterscreen for potentiators or agonists of NPY-Y2: cell-based high-throughput dose response assay to identify inhibitors of cyclic nucleotide gated ion channel (CNGC) activity. In this assay, the parental HEK293 cell line transfected with a cyclic-nucleotide gated ion channel (CNGC)-based cAMP sensor is used to measure inhibition of isoproterenol-induced CNGC activity by test compound.; assay type: functional; conditions: Homo sapiens
[18] = molecular target: T2, Heat shock factor protein 1 (Mus musculus, UniProt P38532); experiment: enhancement of HSF1-driven luciferase signal – cell-based, NIH3T3, luminescence, dose retest, confirmation (AID 435004); assay type: functional;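 also: stress induced by proteasome inhibitor MG132 added 30 min after compound; luciferase reporter driven by HSF1 response element in NIH3T3 cells; actives raise luminescence as potentiators of the MG132 stress response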
T2 sequence (P38532 whole entry): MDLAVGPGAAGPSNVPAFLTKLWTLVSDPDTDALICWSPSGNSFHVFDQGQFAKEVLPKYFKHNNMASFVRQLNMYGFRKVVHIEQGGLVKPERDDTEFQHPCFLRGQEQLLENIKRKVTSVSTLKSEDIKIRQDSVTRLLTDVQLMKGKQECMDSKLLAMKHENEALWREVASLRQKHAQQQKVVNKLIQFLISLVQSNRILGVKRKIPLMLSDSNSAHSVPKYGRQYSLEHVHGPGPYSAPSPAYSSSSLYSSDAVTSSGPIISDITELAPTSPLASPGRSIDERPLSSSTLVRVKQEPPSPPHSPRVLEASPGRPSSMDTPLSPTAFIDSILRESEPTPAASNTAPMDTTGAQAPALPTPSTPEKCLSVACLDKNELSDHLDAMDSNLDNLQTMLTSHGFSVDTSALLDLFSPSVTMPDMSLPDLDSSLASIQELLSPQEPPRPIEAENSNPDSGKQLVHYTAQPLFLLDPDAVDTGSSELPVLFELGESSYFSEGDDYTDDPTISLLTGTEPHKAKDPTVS

[19] = molecular target: T3, Neuropeptide Y receptor type 1 (Homo sapiens, UniProt P25929); experiment: Fluorescence-based counterscreen for agonists of NPY-Y2: cell-based high-throughput dose response assay for agonists of NPY-Y1.; assay type: functional
T3 sequence (P25929 whole entry): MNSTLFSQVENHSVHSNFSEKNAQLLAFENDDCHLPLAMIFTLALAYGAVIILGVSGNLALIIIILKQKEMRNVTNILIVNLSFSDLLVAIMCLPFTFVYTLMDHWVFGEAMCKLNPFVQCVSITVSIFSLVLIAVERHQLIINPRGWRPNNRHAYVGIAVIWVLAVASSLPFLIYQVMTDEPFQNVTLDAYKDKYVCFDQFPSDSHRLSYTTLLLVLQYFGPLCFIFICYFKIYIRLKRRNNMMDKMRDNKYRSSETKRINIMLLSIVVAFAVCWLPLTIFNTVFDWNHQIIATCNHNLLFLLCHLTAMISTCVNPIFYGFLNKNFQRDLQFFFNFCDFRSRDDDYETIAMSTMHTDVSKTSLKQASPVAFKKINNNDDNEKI

[20] = loss of viability in HepG2 cells – cell-based, CellTiter-Glo, cherry-picked, cytotoxicity control for Shn3 inhibitor project, dose response (AID 624134); assay type: functional
[21] = test system: HEK293; experiment: cells; conditions: Homo sapiens
[22] = non-specific 3'UTR reporter inhibition in Clone20-Shn3RL – cell-based, Renilla luciferase, cherry-picked, counter-screen for Shn3 inhibitor project, dose response (AID 624133); assay type: functional
[23] = test system: HEK293; experiment: cells; conditions: Homo sapiens; remark: listed apart in the source
[24] = molecular target: T1, Neuropeptide Y receptor type 2; experiment: IC50 for human NPY-Y2 blockade – cell-based, counter-screen for NPY-Y1 antagonist project, dose response (AID 1278); assay type: functional
[25] = molecular target: T3, Neuropeptide Y receptor type 1; experiment: IC50 of human NPY-Y1 blockers – cell-based, dose response (AID 1277); assay type: functional
[26] = reduction of Shn3 3'UTR-driven luciferase in osteoblasts – cell-based, Clone20 osteoblasts, firefly luciferase, cherry-picked, dose response (AID 624132); assay type: functional;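 also: firefly luciferase luminescence from reporter carrying the Shn3 3'UTR in osteoblasts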
[27] = molecular target: T4, Voltage-gated N-type calcium channel alpha-1B subunit/Amyloid beta A4 precursor protein-binding family A member 1 (Homo sapiens, UniProt Q00975+Q02410); assay type: protein assay
[28] = Luminescence-based counterscreen assay for KLF5 inhibitors: dose response cell-based high throughput screening assay to identify cytotoxic compounds using the IEC-6 intestinal epithelial cell line. [Related pubchem assays: 1700 (Primary screen.), 1834 (Confirmation screen.), 1858 (Summary AID.), 1905 (Counterscreen.)]; assay type: functional
[29] = molecular target: Wee1-like protein kinase (Homo sapiens, UniProt P30291); experiment: Dose Response Cell-based Assay for Inhibitors of Wee1 Degradation. [Related pubchem assays: 1410, 1321 ]; assay type: functional
[30] = test system: BJ; experiment: growth inhibition of engineered Ras-driven BJ cells – cell-based, alamar blue fluorescence, cherrypicked samples, dose response (AID 2631); assay type: functional; conditions: Homo sapiens;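 also: confirmatory dose-response assay in RAS-dependent BJ fibroblasts engineered with TERT, LT and ST, with cytotoxicity read by fluorescence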
[31] = molecular target: G2/mitotic-specific cyclin-B1 (Homo sapiens, UniProt P14635); experiment: Counterscreen assay for inhibitors of Wee1 degradation: dose response cell-based assay to identify inhibitors of cyclin B degradation. [Related pubchem assays: 1410, 1321 ]; assay type: functional
[32] = molecular target: T4, Voltage-gated N-type calcium channel alpha-1B subunit/Amyloid beta A4 precursor protein-binding family A member 1; assay type: protein assay; remark: listed apart in the source
[33] = molecular target: Cytochrome P450 2D6 (Homo sapiens, UniProt P10635); experiment: qHTS Assay for Inhibitors and Substrates of Cytochrome P450 2D6. [Related pubchem assays: 410 ]; assay type: ADME; conditions: read-out: Potency
[34] = molecular target: Cytochrome P450 3A4 (Homo sapiens, UniProt P08684); conditions: Potency;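 also: confirmatory qHTS run detecting inhibitors and substrates of CYP3A4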
Sequence of Cytochrome P450 3A4 (P08684 whole entry): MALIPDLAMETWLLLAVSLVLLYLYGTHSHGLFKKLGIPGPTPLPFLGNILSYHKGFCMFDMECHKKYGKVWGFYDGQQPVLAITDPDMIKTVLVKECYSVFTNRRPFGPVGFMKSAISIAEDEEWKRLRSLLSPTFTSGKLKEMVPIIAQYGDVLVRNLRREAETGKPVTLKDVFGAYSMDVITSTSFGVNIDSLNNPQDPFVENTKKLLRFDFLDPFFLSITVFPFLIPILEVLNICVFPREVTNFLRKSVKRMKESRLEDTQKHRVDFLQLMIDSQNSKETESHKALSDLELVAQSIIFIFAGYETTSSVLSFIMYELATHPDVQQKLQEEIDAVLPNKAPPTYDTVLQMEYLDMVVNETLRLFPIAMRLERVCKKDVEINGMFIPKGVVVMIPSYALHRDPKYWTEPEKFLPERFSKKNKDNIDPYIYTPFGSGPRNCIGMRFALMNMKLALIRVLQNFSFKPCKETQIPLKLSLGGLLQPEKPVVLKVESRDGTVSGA

T4 sequence (Q00975 whole entry): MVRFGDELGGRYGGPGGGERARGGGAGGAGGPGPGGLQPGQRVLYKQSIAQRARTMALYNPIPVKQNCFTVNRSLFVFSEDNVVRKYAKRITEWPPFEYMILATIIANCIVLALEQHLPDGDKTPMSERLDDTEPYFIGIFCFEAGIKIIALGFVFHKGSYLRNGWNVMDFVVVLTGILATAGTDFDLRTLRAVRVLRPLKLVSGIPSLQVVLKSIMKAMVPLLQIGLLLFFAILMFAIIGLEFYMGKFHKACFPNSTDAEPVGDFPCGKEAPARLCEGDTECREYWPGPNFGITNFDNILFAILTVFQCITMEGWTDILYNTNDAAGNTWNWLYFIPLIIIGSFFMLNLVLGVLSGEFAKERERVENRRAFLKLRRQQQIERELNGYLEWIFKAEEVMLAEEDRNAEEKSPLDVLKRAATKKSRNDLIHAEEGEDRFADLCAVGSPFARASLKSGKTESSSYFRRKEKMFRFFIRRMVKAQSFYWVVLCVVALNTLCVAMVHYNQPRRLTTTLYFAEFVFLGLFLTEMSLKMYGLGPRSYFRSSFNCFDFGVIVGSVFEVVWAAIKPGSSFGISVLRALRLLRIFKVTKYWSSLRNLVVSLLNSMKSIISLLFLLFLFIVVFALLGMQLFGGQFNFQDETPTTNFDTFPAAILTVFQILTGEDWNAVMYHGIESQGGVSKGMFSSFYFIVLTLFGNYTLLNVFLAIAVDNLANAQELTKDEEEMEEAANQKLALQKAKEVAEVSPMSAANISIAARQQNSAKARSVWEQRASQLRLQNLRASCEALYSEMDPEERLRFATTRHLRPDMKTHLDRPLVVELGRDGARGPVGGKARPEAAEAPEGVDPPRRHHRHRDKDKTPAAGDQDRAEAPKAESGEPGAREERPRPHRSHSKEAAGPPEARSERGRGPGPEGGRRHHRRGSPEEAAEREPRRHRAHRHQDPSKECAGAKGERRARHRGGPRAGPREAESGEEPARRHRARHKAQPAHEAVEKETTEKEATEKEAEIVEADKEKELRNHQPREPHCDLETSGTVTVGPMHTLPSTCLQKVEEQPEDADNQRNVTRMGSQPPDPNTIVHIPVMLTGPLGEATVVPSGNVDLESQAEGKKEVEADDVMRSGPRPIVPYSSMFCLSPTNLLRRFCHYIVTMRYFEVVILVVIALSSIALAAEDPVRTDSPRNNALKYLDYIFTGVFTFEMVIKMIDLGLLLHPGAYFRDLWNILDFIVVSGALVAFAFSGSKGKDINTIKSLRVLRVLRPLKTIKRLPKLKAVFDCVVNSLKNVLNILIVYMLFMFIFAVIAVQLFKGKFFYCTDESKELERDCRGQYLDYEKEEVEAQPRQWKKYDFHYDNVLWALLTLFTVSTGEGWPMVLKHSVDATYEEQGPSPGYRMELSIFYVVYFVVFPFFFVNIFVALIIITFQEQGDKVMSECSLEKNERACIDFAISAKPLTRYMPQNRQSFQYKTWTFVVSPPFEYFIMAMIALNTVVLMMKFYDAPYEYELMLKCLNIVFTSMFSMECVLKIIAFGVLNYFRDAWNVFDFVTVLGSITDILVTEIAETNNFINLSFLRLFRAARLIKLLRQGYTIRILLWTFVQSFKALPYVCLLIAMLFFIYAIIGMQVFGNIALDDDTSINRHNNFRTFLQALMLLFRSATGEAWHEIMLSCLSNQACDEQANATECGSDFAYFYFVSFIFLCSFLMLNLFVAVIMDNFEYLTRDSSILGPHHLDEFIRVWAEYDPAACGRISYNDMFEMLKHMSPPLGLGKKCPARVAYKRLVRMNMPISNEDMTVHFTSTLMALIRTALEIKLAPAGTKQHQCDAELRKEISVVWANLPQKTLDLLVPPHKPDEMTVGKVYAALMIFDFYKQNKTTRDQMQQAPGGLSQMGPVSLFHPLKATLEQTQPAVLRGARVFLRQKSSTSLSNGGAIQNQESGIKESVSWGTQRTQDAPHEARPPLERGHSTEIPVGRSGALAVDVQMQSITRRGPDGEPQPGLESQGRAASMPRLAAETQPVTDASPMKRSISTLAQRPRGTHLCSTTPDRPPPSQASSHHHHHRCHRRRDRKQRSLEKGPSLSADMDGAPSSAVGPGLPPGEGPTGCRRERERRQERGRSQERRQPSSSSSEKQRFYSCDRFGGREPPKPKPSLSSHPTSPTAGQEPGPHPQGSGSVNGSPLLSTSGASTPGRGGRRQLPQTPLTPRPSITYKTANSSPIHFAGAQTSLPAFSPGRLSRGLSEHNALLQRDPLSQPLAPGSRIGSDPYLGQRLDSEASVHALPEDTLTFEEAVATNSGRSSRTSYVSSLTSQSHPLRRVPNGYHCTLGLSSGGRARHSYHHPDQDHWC
T4 sequence (Q02410 whole entry): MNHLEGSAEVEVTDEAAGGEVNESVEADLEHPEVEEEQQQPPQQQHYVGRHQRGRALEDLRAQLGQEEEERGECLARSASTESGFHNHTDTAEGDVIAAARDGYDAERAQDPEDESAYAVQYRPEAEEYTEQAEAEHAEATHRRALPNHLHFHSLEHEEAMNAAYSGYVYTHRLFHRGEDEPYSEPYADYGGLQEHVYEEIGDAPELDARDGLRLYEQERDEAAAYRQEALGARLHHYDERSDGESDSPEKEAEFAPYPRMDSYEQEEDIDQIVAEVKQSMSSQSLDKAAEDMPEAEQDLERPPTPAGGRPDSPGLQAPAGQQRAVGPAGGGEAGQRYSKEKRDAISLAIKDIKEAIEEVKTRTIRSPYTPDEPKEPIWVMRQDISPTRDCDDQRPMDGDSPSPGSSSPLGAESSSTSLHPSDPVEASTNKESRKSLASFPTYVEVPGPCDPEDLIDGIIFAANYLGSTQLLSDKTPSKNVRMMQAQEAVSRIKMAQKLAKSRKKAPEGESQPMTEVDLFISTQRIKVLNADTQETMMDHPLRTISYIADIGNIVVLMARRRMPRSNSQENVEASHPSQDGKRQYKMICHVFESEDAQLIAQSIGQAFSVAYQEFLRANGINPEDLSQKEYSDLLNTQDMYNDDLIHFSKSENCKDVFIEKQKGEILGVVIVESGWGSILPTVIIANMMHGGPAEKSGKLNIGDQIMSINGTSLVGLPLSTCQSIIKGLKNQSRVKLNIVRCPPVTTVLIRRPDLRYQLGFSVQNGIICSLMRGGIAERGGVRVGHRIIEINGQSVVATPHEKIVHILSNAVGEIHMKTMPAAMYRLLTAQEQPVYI
Sequence of Wee1-like protein kinase (P30291 whole entry): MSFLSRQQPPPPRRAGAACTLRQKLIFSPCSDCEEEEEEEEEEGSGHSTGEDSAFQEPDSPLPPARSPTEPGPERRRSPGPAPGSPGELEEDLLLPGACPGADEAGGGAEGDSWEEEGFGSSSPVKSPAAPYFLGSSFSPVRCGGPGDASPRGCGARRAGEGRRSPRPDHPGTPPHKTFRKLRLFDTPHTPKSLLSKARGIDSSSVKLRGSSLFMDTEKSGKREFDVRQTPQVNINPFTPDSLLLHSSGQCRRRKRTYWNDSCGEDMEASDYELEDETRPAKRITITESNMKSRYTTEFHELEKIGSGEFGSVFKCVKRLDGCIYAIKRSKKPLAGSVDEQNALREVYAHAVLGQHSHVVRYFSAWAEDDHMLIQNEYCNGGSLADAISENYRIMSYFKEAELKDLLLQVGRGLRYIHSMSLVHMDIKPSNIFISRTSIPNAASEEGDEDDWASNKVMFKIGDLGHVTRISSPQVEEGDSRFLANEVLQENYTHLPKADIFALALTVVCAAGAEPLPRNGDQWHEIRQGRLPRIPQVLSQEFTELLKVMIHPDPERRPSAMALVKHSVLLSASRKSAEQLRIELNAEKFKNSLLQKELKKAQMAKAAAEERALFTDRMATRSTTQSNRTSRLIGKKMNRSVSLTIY
Sequence of Luciferin 4-monooxygenase (P08659 whole entry): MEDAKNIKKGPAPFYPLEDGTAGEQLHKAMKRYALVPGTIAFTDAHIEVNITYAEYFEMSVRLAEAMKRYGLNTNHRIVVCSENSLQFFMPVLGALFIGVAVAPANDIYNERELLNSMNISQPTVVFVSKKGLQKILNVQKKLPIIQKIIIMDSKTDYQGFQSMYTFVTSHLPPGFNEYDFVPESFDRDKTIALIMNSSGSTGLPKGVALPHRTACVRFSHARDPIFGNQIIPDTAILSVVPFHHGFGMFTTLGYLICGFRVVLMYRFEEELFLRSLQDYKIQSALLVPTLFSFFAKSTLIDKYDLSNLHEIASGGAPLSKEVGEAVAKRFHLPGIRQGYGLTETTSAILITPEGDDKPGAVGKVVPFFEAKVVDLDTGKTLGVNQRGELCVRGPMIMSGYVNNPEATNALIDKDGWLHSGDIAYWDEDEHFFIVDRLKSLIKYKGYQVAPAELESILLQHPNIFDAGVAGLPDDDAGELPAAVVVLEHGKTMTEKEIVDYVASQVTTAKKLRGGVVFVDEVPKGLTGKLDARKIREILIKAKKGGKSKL

## CC(=O)c1sc2c(c1OC(=O)c1ccc(Cl)cc1Cl)c(=O)n(-c1ccccc1)c(=S)n2-c1ccccc1
[1]
  EC50: < 0.1 µM (active)
[2]
  IC50: > 80 µM (inactive)
[3]
  EC50: 0.134 µM (active)
[4]
  EC50: 0.444 µM (active)
[5]
  EC50: 6.47 µM (inconclusive)
[6]
  EC50: 0.578 µM (active)
[7]
  EC50: 0.36 µM (inconclusive)
[8]
  EC50: 0.716 µM (active)
[9]
  CC50: 1.59 µM (active)
[10]
  EC50: 104 µM (active)
[11]
  EC50: < 0.1 µM (active)
[12]
  EC50: 0.201 µM (active)

## O=c1/c(=C/c2ccccn2)sc2nc3ccccc3n12
[13]
  EC50: > 50 µM (not active)
[14]
  EC50: < 0.2 µM (active)

## C/C1=C\[C@@H](C)C/C=C/[C@H]2[C@@H]3O[C@]3(C)[C@@H](C)[C@H]3[C@H](Cc4c[nH]c5ccccc45)NC(=O)[C@]32C(=O)/C=C/C(=O)[C@@H]1O
[15]
  EC50: > 35.4 µM (not active)
[16]
  EC50: 12 µM (not active)
[17]
  EC50: > 35.4 µM (not active)
[18]
  EC50: 6.24 µM (inconclusive)
[19]
  EC50: > 35.4 µM (not active)
[20]
  AC50: 24.2 µM (active)
[5]
  EC50: 10.7 µM (inconclusive)
[21]
  EC50: > 59.6 µM (inactive)
[22]
  AC50: 5.25 µM (active)
[23]
  EC50: > 59.6 µM (inactive)
[24]
  IC50: 4.76 µM (active)
[7]
  EC50: 5.67 µM (active)
[25]
  IC50: 10.6 µM (not active)
[26]
  AC50: 6.44 µM (active)
[10]
  EC50: 6.74 µM (inconclusive)
[12]
  EC50: 3.85 µM (inconclusive)

## Cc1nc2ccccn2c1-c1csc(Nc2cccc(O)c2)n1
[27]
  IC50: 10 µM (active)
[28]
  IC50: > 13.3 µM (not active)
[5]
  EC50: 1.55 µM (inconclusive)
[29]
  EC50: > 49.7 µM (not active)
[30]
  EC50: 0.205 µM (active)
[7]
  EC50: 1.96 µM (active)
[31]
  EC50: > 49.7 µM (not active)
[32]
  IC50: > 50 µM (inactive)
[10]
  EC50: 82.4 µM (inconclusive)
[12]
  EC50: 7.42 µM (active)

## Cc1cccc(C#Cc2ccccc2)n1
[33]
  AC50: 39.8 µM (inconclusive)
[34]
  AC50: 20 µM (inconclusive) and 1.26 µM (inconclusive)
